From patent US8519154B2, “Method for treatment of bronchial asthma” (Council of Scientific & Industrial Research, priority 2011, dated 2013)

Tests used:
[1] = Plasma binding; format: in vitro ADME
[2] = system: mice (Balb/c); assay: 28 d sub-acute oral toxicity (OECD TG 407); format: in vivo; details: for Protein: normal 6-9; for SGOT: normal 19@25° C.; for Glucose: normal 55-130; for Bilirubin: normal <1.1; for SGPT: normal <22 @25° C.; for CMI DTH (% increase in paw vol): SRBC sensitized; for Total Ig IgG / Total Ig IgM: serum, ELISA; for % viability BM / % viability LN / % viability Spleen: trypan blue
Procedure: (§1) The study was performed according to the guidelines laid in OECD TG 407. Young healthy adult mice (Balb/c) weighing between 28 to 35 g were employed and randomly assigned to the control and treatment groups and kept in their cages for at least five days prior to the start of the treatment to allow for acclimatisation to the laboratory conditions. 10 animals (five female and five male) were used at each dose level. Local standards of laboratory animal care were maintained. The temperature in the experimental animal room was maintained at 24° C.±3° C. and the relative humidity between 40 to 60% with 12 hours artificial light and 12 hours dark photoperiod. For feeding, conventional sterile pellet diets (Nay Chetan) with an unlimited supply of RO drinking water was given. A sample of the diet was retained until finalisation of the report. Animals were housed in small groups of 5 of the same sex.
(§2) Blunt ended canula was used for gavaging. During the period of administration of Compound I, the animals are observed closely (30 minutes cage side observation), each day for signs of toxicity till the day of sacrifice. Weights of animals and measurements of food consumption were made once in a week.
(§3) Experimental animals were sacrificed on day 29. Before sacrifice, blood was drawn from the retro-orbital sinus of mice with the help of heparinised capillary tubes and split in to two parts. Part taken in tubes containing EDTA was used for hematological studies with the help of Automatic Hematology Analyzer (Medonic). The other part was allowed to clot for 2 h and serum separated by centrifugation at 3000 rpm for 5 min, and subsequently used for clinical biochemistry and immunoglobuling profiling. Post sacrifice, the individual organs were dissected out, weighed and percentage relative organ weights determined. Spleen, lymphnode and bone marrow cell viability were judged by trypan blue dye exclusion test.
(§4) The blood left after the hematological studies were allowed to clot for 2 h and serum separated by centrifugation at 3000 rpm for 5 min and subsequently used for clinical biochemistry. Details of the clinical biochemistry are given below in table II.
(§5) Serum concentrations of total IgG and IgM were measured by ELISA and Cell mediated immunity was measured in terms of % increase in paw volume in mice sensitized with SRBC.
(§6) Histopathology was carried out on vital organs by fixing organs in 10% buffered formalin saline for 72 h followed by washing, dehydrating and embedding on paraffin wax. Paraffin blocks were sectioned (4-5μ tick), deparaffinised and stained with hematoxylin and eosin for viewing and photography under microscope (Nikion, Japan). Histopathology was performed in the control and high dose groups unless mentioned otherwise.

[3] = 28 d sub-acute oral toxicity (OECD TG 407); format: in vivo, mice; details: both sexes, Balb/c, mouse, in vivo; mice, 28 d oral
Procedure: as §1, §2, §3, §4, §5, §6

[4] = Lipophilicity; format: physicochemical
[5] = Solubility in water; format: physicochemical
[6] = system: mice; assay: Electric shock induced convulsions; format: in vivo, Swiss mice
Procedure: Convulsion were induced by a single electroshock (50 Hz in frequency, 0.5 ms pulse width, 50 mA current for 0.3 s) applied through bi-polar electrodes attached to the ear pinna on both side using a pulse generator (Ugo Basile, Italy). The convulsive activity (determined by loss of tonic extensor seizure) was recorded in control (untreated) and Compound I were treated (before electro-shock application) animals [Achliya, G S, Wadodkar, S G, Darle, A K., Evaluation of CNS activity of Bramhi Ghrita. Indian J. Pharmacol. 37 (2005) 33-36].
Anti-convulsant activity was measured by electric shock induced seizure. Five Swiss mice were used for one dose of drug. Convulsion were induced by a single electroshock (50 Hz in frequency, 0.5 ms pulse width, 50 mA current for 0.3 s) applied through bi-polar electrodes attached to the ear pinna on both side by a pulse generator (Ugo Basile, Italy) Test drug were administered orally 60 min before electroshock application, and convulsive activity was determined by loss of tonic extensor seizure.

[7] = Crossing of the intestinal barrier; format: in vitro ADME

Question: With `COc1cc(C=O)cc2c1[nH]c1ccccc12` [Compound I, 1-methoxy-3-formyl-9H carbazole] as the molecule, how does the plasma binding [1] read?
Answer: high plasma binding

Question: And the HGB ([2]; 42 mg/kg, 28 d oral)?
Answer: 9.47 ± 1.7 g/dL

Question: What about the PLT ([2]; 42 mg/kg, 28 d oral) of the same molecule?
Answer: 439 ± 76 × 10^3/mm^3

Question: What about the RBC ([2]; 42 mg/kg, 28 d oral) of the same molecule?
Answer: 7.29 ± 1.46 ×10^6/mm^3

Question: And the WBC ([2]; 42 mg/kg, 28 d oral)?
Answer: 6.7 ± 1.2 10^3/mm^3

Question: And the Protein ([2]; 42 mg/kg, 28 d oral)?
Answer: 7.93 ± 1.33 g/dL

Question: And the SGOT ([2]; 42 mg/kg, 28 d oral)?
Answer: 15.51 ± 3.6 U/L

Question: What about the Glucose ([2]; 42 mg/kg, 28 d oral) of the same molecule?
Answer: 127 ± 17 mg/dL

Question: What about the Bilirubin ([2]; 42 mg/kg, 28 d oral) of the same molecule?
Answer: 0.74 ± 0.08 mg/dL

Question: What about the SGPT ([2]; 42 mg/kg, 28 d oral) of the same molecule?
Answer: 18.54 ± 2.1 U/L

Question: What about the “CMI DTH (% increase in paw vol)” value ([2]; 47 mg/kg, 28 d oral) of the same molecule?
Answer: 17.23 ± 4.4 % increase in paw vol

Question: And the “Total Ig IgG” value ([2]; 47 mg/kg, 28 d oral)?
Answer: 3.1 ± 0.85 mg/mL

Question: What about the “Total Ig IgM” value ([2]; 47 mg/kg, 28 d oral) of the same molecule?
Answer: 1.48 ± 0.12

Question: What about the “% viability BM” value ([2]; 47 mg/kg, 28 d oral) of the same molecule?
Answer: 97.3 ± 3.5%

Question: What about the “% viability LN” value ([2]; 47 mg/kg, 28 d oral) of the same molecule?
Answer: 95.9 ± 5.4%

Question: And the “% viability Spleen” value ([2]; 47 mg/kg, 28 d oral)?
Answer: 96.8 ± 4.8%

Question: And the “glucose vs normal range” value ([2]; 93 mg/kg)?
Answer: marginally higher than the normal range

Question: What about the symptoms of toxicity ([2]; 93 mg/kg body weight) of the same molecule?
Answer: no symptoms of toxicity

Question: And the HGB ([2]; 93 mg/kg, 28 d oral)?
Answer: 12.8 ± 2.4 g/dL

Question: And the PLT ([2]; 93 mg/kg, 28 d oral)?
Answer: 426 ± 43 × 10^3/mm^3

Question: What about the RBC ([2]; 93 mg/kg, 28 d oral) of the same molecule?
Answer: 8.52 ± 1.4 ×10^6/mm^3

Question: What about the WBC ([2]; 93 mg/kg, 28 d oral) of the same molecule?
Answer: 5.9 ± 1.4 10^3/mm^3

Question: What about the “CMI DTH (% increase in paw vol)” value ([2]; 93 mg/kg, 28 d oral) of the same molecule?
Answer: 19.2 ± 6.3 % increase in paw vol

Question: And the Protein ([2]; 93 mg/kg, 28 d oral)?
Answer: 8.73 ± 2.8 g/dL

Question: And the SGOT ([2]; 93 mg/kg, 28 d oral)?
Answer: 12.9 ± 1.92 U/L

Question: What about the Glucose ([2]; 93 mg/kg, 28 d oral) of the same molecule?
Answer: 133 ± 13 mg/dL

Question: And the Bilirubin ([2]; 93 mg/kg, 28 d oral)?
Answer: 0.17 ± 0.068 mg/dL

Question: What about the SGPT ([2]; 93 mg/kg, 28 d oral) of the same molecule?
Answer: 10.2 ± 2.9 U/L

Question: And the “Total Ig IgG” value ([2]; 93 mg/kg, 28 d oral)?
Answer: 3.6 ± 1.26 mg/mL

Question: What about the “Total Ig IgM” value ([2]; 93 mg/kg, 28 d oral) of the same molecule?
Answer: 1.12 ± 0.33

Question: And the “% viability BM” value ([2]; 93 mg/kg, 28 d oral)?
Answer: 96.8 ± 4.6%

Question: And the “% viability LN” value ([2]; 93 mg/kg, 28 d oral)?
Answer: 96.5 ± 4.6%

Question: What about the “% viability Spleen” value ([2]; 93 mg/kg, 28 d oral) of the same molecule?
Answer: 95.4 ± 5.3%

Question: What about the “SGOT vs normal range” value ([2]; 187 mg/kg) of the same molecule?
Answer: marginally higher than the normal range

Question: What about the “glucose level vs normal range” value ([2]; 187 mg/kg) of the same molecule?
Answer: much higher than the normal range

Question: And the kidney histopathology ([2]; 187 mg/kg)?
Answer: sign of necrosis in the corticular region

Question: And the signs of toxicity ([2]; 187 mg/kg)?
Answer: Few signs of toxicity

Question: And the HGB ([2]; 187 mg/kg, 28 d oral)?
Answer: 13.2 ± 1.8 g/dL

Question: And the PLT ([2]; 187 mg/kg, 28 d oral)?
Answer: 472 ± 65 × 10^3/mm^3

Question: And the RBC ([2]; 187 mg/kg, 28 d oral)?
Answer: 8.6 ± 0.67 ×10^6/mm^3

Question: And the WBC ([2]; 187 mg/kg, 28 d oral)?
Answer: 5.9 ± 4.1 10^3/mm^3

Question: What about the “CMI DTH (% increase in paw vol)” value ([2]; 187 mg/kg, 28 d oral) of the same molecule?
Answer: 17.4 ± 6.6 % increase in paw vol

Question: What about the Protein ([2]; 187 mg/kg, 28 d oral) of the same molecule?
Answer: 7.27 ± 0.85 g/dL

Question: And the SGOT ([2]; 187 mg/kg, 28 d oral)?
Answer: 20.2 ± 0.85 U/L

Question: And the Glucose ([2]; 187 mg/kg, 28 d oral)?
Answer: 183 ± 20 mg/dL

Question: And the Bilirubin ([2]; 187 mg/kg, 28 d oral)?
Answer: 0.91 ± 0.057 mg/dL

Question: What about the SGPT ([2]; 187 mg/kg, 28 d oral) of the same molecule?
Answer: 15.83 ± 2.32 U/L

Question: And the “Total Ig IgG” value ([2]; 187 mg/kg, 28 d oral)?
Answer: 2.9 ± 0.56 mg/mL

Question: And the “Total Ig IgM” value ([2]; 187 mg/kg, 28 d oral)?
Answer: 1.04 ± 0.34

Question: What about the “% viability BM” value ([2]; 187 mg/kg, 28 d oral) of the same molecule?
Answer: 94.67 ± 4.9%

Question: What about the “% viability LN” value ([2]; 187 mg/kg, 28 d oral) of the same molecule?
Answer: 97.4 ± 3.9%

Question: And the “% viability Spleen” value ([2]; 187 mg/kg, 28 d oral)?
Answer: 98.4 ± 4.4%

Question: And the “DTH response vs sham treated control” value ([2]; SRBC sensitized mice)?
Answer: insignificant changes

Question: What about the “acute oral LOAEL” value ([2]; mice, 28 d oral) of the same molecule?
Answer: 187 mg/kg

Question: What about the “viability of bone marrow cells, splenocyte and lymph node lymphocyte vs sham control” value ([2]; trypan blue dye exclusion test) of the same molecule?
Answer: No significant changes

Question: And the NOAEL at 28 days [3]?
Answer: 93 mg/kg

Question: And the lipophilicity [4]?
Answer: highly lipophilic

Question: And the solubility in water [5]?
Answer: insoluble in water

Question: What about the “Convulsions Clonic” value ([6]; 12.5 mg/kg p.o.) of the same molecule?
Answer: 5/5

Question: And the “Convulsions Tonic” value ([6]; 12.5 mg/kg p.o.)?
Answer: 5/5

Question: What about the Mortality ([6]; 12.5 mg/kg p.o.) of the same molecule?
Answer: 1/5

Question: What about the “Convulsions Clonic” value ([6]; 50 mg/kg p.o.) of the same molecule?
Answer: 5/5

Question: What about the “Convulsions Tonic” value ([6]; 50 mg/kg p.o.) of the same molecule?
Answer: 5/5

Question: And the Mortality ([6]; 50 mg/kg p.o.)?
Answer: 0/5

Question: And the “Convulsions Clonic” value ([6]; 100 mg/kg p.o.)?
Answer: 5/5

Question: And the “Convulsions Tonic” value ([6]; 100 mg/kg p.o.)?
Answer: 5/5

Question: What about the Mortality ([6]; 100 mg/kg p.o.) of the same molecule?
Answer: 0/5

Question: And the anti-convulsant activity ([6]; 12.5, 25 and 50 mg/kg orally)?
Answer: no anti-convulsant activity

Question: And the “crosses the intestinal barrier” value [7]?
Answer: largely by passive diffusion
